In the NIST ThermoML archive (doi:10.1016/j.tca.2013.02.006):
Numbers after ± are expanded uncertainties.

Key:
[1] = refractive index (Na D-line) (dimensionless); details: 298.2 K; 101.33 kPa; Liquid; Standard Abbe refractometry
[2] = 101.33 kPa, Liquid, Vibrating tube method

Row | refractive index [1] | mass density ([2]; 298.2 K) [kg/m3] | mass density ([2]; 293.2 K) [kg/m3] | Structure (SMILES)
1 | 1.4412 ± 0.0008 | 829.76 ± 0.24 | – | CCCCCCCCCCCCO [dodecan-1-ol]
2 | 1.4586 ± 0.0008 | – | 843.94 ± 0.24 | CCCCCCCCCCCCS [1-dodecanethiol]
3 | 1.4349 ± 0.0008 | 826.48 ± 0.24 | – | CCCCCCCCCCO [decan-1-ol]
